Measurements reported in PMC3412845, “Waking Action of Ursodeoxycholic Acid (UDCA) Involves Histamine and GABAA Receptor Block” (PLoS ONE, 2012).

Columns and labels:
NMDA receptors = assay: NMDA-evoked currents in isolated neurons; format: cell-based
Procedure: (§1) Recordings from histaminergic neurons in male Wistar rat (22–26 day old) or 30–60 day old mouse (SV129, histidine decarboxylase deficient HDC−/− or their wild type littermates) hypothalamic slices were performed as previously described. Slices were obtained between 9 and 11 a.m. In the beginning of whole-cell voltage clamp recordings TMN neurons were identified with the help of DIC microscopy and electrophysiological criteria as previously described. Inhibitory postsynaptic currents (IPSCs) were evoked by local stimulation through a bipolar stainless-steel stimulating electrode (50 µm; WPI, UK). The stimulation of axonal endings coming to TMN from ventrolateral preoptic area (VLPO) was done as described in [22]. Visual identification of histaminergic neurons recorded in cell-attached configuration (see [16]) was confirmed by the significant reduction of firing rate by the histamine 3 (H3) receptor agonist R-α-methylhistamine (0.2 µM), which was performed at the end of each experiment. Individual neurons were separated by vibrodissociation after brief preincubation with papain from the hypothalamic slices of mice or rats and identified as TMN neurons according to their size and shape. Identification was confirmed post hoc with the single-cell RT-PCR (all data presented in the manuscript were obtained from histidine decarboxylase-expressing neurons), [40]. TMN neurons from HDC−/− mice were identified by the expression of peripherin [16]. Whole-cell voltage-clamp recordings from isolated neurons were done with an EPC-9 amplifier and TIDA for Windows (HEKA, Lambrecht, Germany) at room temperature. Membrane potentials were not corrected for liquid junction potential (5.6 mV, calculated with LJPCalc, Barry, 1994). The intracellular solution was composed of (in mM) 140 KCl, 2 MgCl2, 0.5 CaCl2, 5 EGTA, 2 ATP and 10 HEPES (pH 7.2 adjusted with NaOH). A fast perfusion technique was used for application of ligands and modulators of fast ionotropic receptors, [41]. […] EC50 is the ligand concentration producing a half-maximal response, [ligand] is ligand concentration, and n is the Hill slope. Hill coefficients were obtained from the slope of the log/log plot of the dose-response curves. […] Steady-state amplitudes of the responses were used for the construction of dose-response plots if not mentioned otherwise.
For the testing of UDCA action at NMDA receptors a maximal 0.2 mM concentration of agonist was used. Recordings were done in Mg^2+ -free solution in the presence of 10 µM of glycine. NMDA-currents were abolished by the NMDA receptor antagonist D-AP5 (100 µM).

[1] = set-up: method as in PMID 12236487, PMID 15349909; settings: after several month of UDCA therapy (up to 35 mg/kg); cited from earlier work
[2] = system: isolated TMN neurons (sIPSCs); assay: sIPSCs in acutely isolated and cultured neurons; format: cell-based
Procedure: as §1, with “Visual identification of histaminergic neurons recorded in cell-attached configuration (see [16]) was confirmed by the significant reduction of firing rate by the histamine 3 (H3) receptor agonist R-α-methylhistamine (0.2 µM), which was performed at the end of each experiment.” left out

TGR5 = system: TGR5; set-up: method as in PMID 12524422; settings: cited from earlier work
[3] = system: TMN neurons (eIPSCs and sIPSCs); assay: Spontaneous and evoked IPSCs in TMN neurons in brain slices; format: cell-based, rat
Procedure: as §1, with “Visual identification of histaminergic neurons recorded in cell-attached configuration (see [16]) was confirmed by the significant reduction of firing rate by the histamine 3 (H3) receptor agonist R-α-methylhistamine (0.2 µM), which was performed at the end of each experiment.” left out

α1β3γ2L GABAA receptors = target: T1, α1β3γ2L GABAA receptors (UniProt P22723+P28472+P62813); assay: Patch-clamp of recombinant α1β3γ2L GABAAR in HEK293 cells; format: cell-based, rat α1, human β3, mouse γ2L
T1 construct: expressed in transfected cells; host or cells: HEK293
T1 sequence (P62813 28-455): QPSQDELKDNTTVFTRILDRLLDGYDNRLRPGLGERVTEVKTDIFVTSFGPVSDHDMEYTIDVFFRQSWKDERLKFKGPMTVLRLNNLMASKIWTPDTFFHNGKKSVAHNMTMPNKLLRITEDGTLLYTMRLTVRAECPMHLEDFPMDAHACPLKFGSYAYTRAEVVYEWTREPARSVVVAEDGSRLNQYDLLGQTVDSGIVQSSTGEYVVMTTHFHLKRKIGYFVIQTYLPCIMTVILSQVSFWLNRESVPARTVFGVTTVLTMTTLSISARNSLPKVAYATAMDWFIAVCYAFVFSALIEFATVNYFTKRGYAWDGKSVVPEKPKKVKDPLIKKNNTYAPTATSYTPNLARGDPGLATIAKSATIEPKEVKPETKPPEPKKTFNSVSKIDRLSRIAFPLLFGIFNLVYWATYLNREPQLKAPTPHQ
T1 sequence (P28472 26-473): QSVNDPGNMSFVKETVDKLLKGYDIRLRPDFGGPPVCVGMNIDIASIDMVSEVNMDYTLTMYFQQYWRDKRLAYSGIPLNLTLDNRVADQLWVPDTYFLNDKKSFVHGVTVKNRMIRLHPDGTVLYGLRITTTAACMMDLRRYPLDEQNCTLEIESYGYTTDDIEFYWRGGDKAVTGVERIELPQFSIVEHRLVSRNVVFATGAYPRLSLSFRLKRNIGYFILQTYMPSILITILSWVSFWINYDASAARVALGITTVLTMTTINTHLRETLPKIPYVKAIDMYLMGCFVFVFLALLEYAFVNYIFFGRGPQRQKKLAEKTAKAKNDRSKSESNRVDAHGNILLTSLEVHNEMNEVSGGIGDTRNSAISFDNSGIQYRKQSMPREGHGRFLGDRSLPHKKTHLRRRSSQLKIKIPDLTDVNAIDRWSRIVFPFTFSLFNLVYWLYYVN
T1 sequence (P22723 39-474): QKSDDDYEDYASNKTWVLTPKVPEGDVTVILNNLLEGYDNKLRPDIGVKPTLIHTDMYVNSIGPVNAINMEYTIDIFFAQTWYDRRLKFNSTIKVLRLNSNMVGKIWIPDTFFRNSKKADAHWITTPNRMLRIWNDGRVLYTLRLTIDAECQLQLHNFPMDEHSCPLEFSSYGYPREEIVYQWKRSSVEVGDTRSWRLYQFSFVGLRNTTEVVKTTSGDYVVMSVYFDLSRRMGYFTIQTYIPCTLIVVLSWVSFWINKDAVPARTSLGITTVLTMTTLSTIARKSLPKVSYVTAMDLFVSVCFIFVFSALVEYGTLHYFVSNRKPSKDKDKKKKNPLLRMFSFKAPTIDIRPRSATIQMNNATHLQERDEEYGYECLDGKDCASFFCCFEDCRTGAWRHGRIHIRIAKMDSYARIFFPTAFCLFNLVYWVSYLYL
Procedure: (§2) HEK 293 cells were obtained from DSM (Deutsche Sammlung von Mikroorganismen und Zellkulturen GmbH, DSM, Braunschweig). They were grown and maintained according to published standard protocols. Briefly, cells were grown in minimal essential medium supplemented with 10% fetal bovine serum, 100units/ml penicillin and streptomycin and 2 mM L-glutamine and splitted once per week. Semiconfluent cells were transfected on the third day after splitting with the help of Lipofectamine 2000 (Invitrogen), recordings were done 48–72 hrs after transfection.
(§3) The GABAAR subunit cDNAs, generously donated by G.Gisselmann (rat α1, mouse γ2L, rat β1, β2 and human β3 [26]) and J.H. Steinbach (rat α1V256S [28] and rat α1Q241L [44]), were subcloned into pcDNA3 (Invitrogen, Karlsruhe, Germany) and applied in a ratio 1∶1∶1 for the α1βxγ2L receptor and 1∶1 for α1β3 or β3γ2L receptors. […] For each receptor type patch clamp recordings were obtained from at least three separate transfections. Whole-cell patch clamp recordings were done in a similar extracellular solution as for the native cells (see above) except that the concentration of MgCl2 was reduced to 1.2 mM. Intracellular electrodes contained 140 mM CsCl (instead of KCl), pH adjusted with CsOH. The voltage was held at −40 mV.

native GABAA receptors = assay: GABA-evoked whole-cell currents in acutely isolated TMN neurons (wild type); format: cell-based, mouse
Procedure: as §1, with “Visual identification of histaminergic neurons recorded in cell-attached configuration (see [16]) was confirmed by the significant reduction of firing rate by the histamine 3 (H3) receptor agonist R-α-methylhistamine (0.2 µM), which was performed at the end of each experiment.” left out

β3γ2L GABAA receptors = target: T2, β3γ2L GABAA receptors (UniProt P22723+P28472); assay: Patch-clamp of recombinant β3γ2L receptors in HEK293 cells, histamine-evoked currents; format: cell-based, human β3, mouse γ2L; settings: histamine 5 mM
T2 construct: expressed in transfected cells; host or cells: HEK293
T2 sequence (P28472 26-473): as the sequence (P28472 26-473) above
T2 sequence (P22723 39-474): as the sequence (P22723 39-474) above
Procedure: as §2, §3

C[C@H](CCC(=O)O)[C@H]1CC[C@H]2[C@@H]3[C@@H](O)C[C@@H]4C[C@H](O)CC[C@]4(C)[C@H]3CC[C@]12C [UDCA, ursodeoxycholic acid]
concentration above which block of NMDA receptors starts (NMDA receptors): higher than 100 µM | NMDA-receptor mediated currents (NMDA receptors; 100 µM): did not affect | IC50 (NMDA receptors; read-out: IC50 of NMDA receptor block, n = 4, NMDA 0.2 mM, Mg2+-free, 10 µM glycine): 540 ± 40 µM | share of the total bile acid pool [1]: 58–69% | decay kinetics of sIPSCs ([2]; 10 µM): significantly accelerated the decay kinetics of sIPSCs in some | decay kinetics of sIPSCs ([2]; 30 µM): significantly reducing decay kinetics in all investigated neurons | sensitivity of TGR5 to UDCA (TGR5): rather insensitive | effect on eIPSCs and sIPSCs ([3]; 30 µM): ineffective | amplitude of eIPSCs and sIPSCs ([3]; 100 µM): significantly inhibited the amplitude of eIPSCs and sIPSCs in less than half of the neurons | amplitude and decay time of eIPSCs and sIPSCs ([3]; 300 µM, all investigated neurons): significant reductions | Hill coefficient nH of UDCA block (α1β3γ2L GABAA receptors; maximal GABA): 0.63 | IC50 (α1β3γ2L GABAA receptors; read-out: IC50 of block of GABA-evoked steady-state currents): 73 µM | deactivation time constant (τoff) (native GABAA receptors): prolonged | peak current amplitude of maximal GABA-mediated whole-cell currents (native GABAA receptors): not affected | use dependence of block of GABA currents (native GABAA receptors): not use dependent | reversibility of block of GABA currents (native GABAA receptors; GABA 10 µM, 1 s): fully reversible | concentration at which inhibition of GABA-evoked currents and sIPSCs starts (native GABAA receptors; acutely isolated histaminergic neurons): 10 µM | macroscopic apparent desensitization of responses to saturating GABA (native GABAA receptors; decrease of fast decay time constant and steady-state/peak ratio): concentration-dependently enhanced | IC50 (native GABAA receptors; native receptors, steady-state currents, read-out: IC50 of inhibition of GABA-evoked currents): 92 µM | Hill coefficient nH of UDCA block (β3γ2L GABAA receptors): 0.62 | IC50 (β3γ2L GABAA receptors; read-out: IC50 of block of histamine-evoked currents): 232 ± 66 µM
